From patent publication US6312704A, “Orally administrable composition capable of providing enhanced bioavailability when ingested” (Gattefosse, S.A., priority 1993, dated 2001)

What was measured:
[1] = format: physicochemical; conditions: gastric medium pH 1.2
Source text: The proportions by weight of the different constituents of this mixture are: […]

[2] = in vitro rate of dissolution of hydrocortisone in a gastric medium (pH 1.2); format: physicochemical
Source text: In this example, the rates of dissolution of hydrocortisone in a gastric medium (at pH 1.2) are compared.
The same lipophilic phase and the same SA/CoSA mixture are used as in Example 8, but in the following proportions: […]

[3] = in vivo test on rats, plasma concentrations after oral administration of indomethacin; conditions: powder made into a suspension immediately before use
Method: In vivo tests were conducted on rats with indomethacin as active agent.
(§1) The proportions by weight of the different constituents of this mixture are:
An oral administration of indomethacin is first carried out according to the above composition.
A second series of tests consists in administering indomethacin orally in the form of powder made into a suspension immediately before use.

[4] = in vitro dissolution of indomethacin in a gastric medium at pH 1.2; format: physicochemical; conditions: gastric medium pH 1.2
Method: In all the examples, the complement by weight to […] of the composition is, in actual fact, represented by an anti-inflammatory active principle, namely indomethacin in Examples 1 to 8, and 12, hydrocortisone in Example 9 and diclofenac sodium in Example 10. In examples 1-12, the hydrophilic phase is represented by water which is known to be a simulation of the digestive milieu for in vitro tests.
By way of comparison, when the pure active agent (indomethacin) is tested, at best only 5% of this active agent is dissolved in one hour; and still by way of comparison, with hard gelatin capsules of this active principle which are currently on the market, only 4.7% of active agent dissolved is obtained at the end of one hour.
In this example, the rates of dissolution in vitro in a gastric medium (at pH =1.2), in which indomethacin alone has a rate of dissolution of less than 5% in the same medium, are compared.
as §1
In this example, the same components are used as in the preceding example, with different proportions, namely: […]

## O=C(O)Cc1ccccc1Nc1c(Cl)cccc1Cl [diclofenac sodium]
[1]; 30 min
  rate of dissolution in 30 min: 1%
[1]; powder form
  solubility in gastric medium (in words): almost insoluble

## C[C@]12CCC(=O)C=C1CC[C@@H]1[C@@H]2[C@@H](O)C[C@@]2(C)[C@H]1CC[C@]2(O)C(=O)CO [hydrocortisone]
[2]
  rate of dissolution in 45 minutes: 10%

## COc1ccc2c(c1)c(CC(=O)O)c(C)n2C(=O)c1ccc(Cl)cc1 [indomethacin]
[3]
  kinetics obtained: irregular and vary from one animal to another
[3]; rat, in vivo, one hour
  concentration at 1 h: 1000 to 5000 ng/mL
[3]; rat, in vivo, two hours
  concentration at 2 h: 1000 to 4000 ng/mL
[4]; one hour
  percentage of the active agent dissolved at the end of one hour: ≤ 5%
[4]; indomethacin alone, time not stated
  rate of dissolution: less than 5%
